Experimental data published in ChEMBL document CHEMBL1806404, “Synthesis, molecular modeling and biological evaluation of β-ketoacyl-acyl carrier protein synthase III (FabH) as novel antibacterial agents” (Bioorg Med Chem, 2011).
In brackets after ≈: the same amount, converted by molar mass.

Experiments:
Escherichia coli = assay: Antibacterial activity against Escherichia coli ATCC35218 after 24 hrs by MTT assay; assay type: functional; details: ATCC35218, 24 h
Pseudomonas aeruginosa = assay: Antibacterial activity against Pseudomonas aeruginosa ATCC13525 after 24 hrs by MTT assay; assay type: functional; details: ATCC13525, 24 h
Bacillus subtilis = assay: Antibacterial activity against Bacillus subtilis ATCC6633 after 24 hrs by MTT assay; assay type: functional; details: ATCC6633, 24 h
Staphylococcus aureus = assay: Antibacterial activity against Staphylococcus aureus ATCC6538 after 24 hrs by MTT assay; assay type: functional; details: ATCC6538, 24 h
[1] = molecular target: T1, 3-oxoacyl-[acyl-carrier-protein] synthase 3 (Escherichia coli, UniProt C3TDZ2); assay: Inhibition of N-terminal His-tagged Escherichia coli FabH expressed in Escherichia coli BL21 (DE3) using [3H]acetyl-coA after 25 mins by liquid scintillation counting
T1 sequence (C3TDZ2 whole entry): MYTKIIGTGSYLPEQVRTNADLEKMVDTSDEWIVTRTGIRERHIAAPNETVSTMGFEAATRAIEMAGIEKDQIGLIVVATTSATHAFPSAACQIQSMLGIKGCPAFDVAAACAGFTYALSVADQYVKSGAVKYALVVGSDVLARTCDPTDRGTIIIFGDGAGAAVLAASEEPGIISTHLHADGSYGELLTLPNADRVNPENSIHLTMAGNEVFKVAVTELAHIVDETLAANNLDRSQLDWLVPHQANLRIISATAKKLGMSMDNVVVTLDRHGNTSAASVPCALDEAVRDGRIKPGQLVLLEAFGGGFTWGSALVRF

[2] = Toxicity in erythrocytes assessed as hemolytic activity; assay type: cell-based; details: erythrocyte

Structure (SMILES)	MIC (Escherichia coli)	MIC (Pseudomonas aeruginosa)	MIC (Bacillus subtilis)	MIC (Staphylococcus aureus)	IC50 [1]	MHC [2]	Ki [1]
Cc1ncc([N+](=O)[O-])n1CC(C)OC(=O)/C=C/c1ccc(Cl)cc1 (stereo unspecified)	12.5 µg/mL (≈ 35.7 µM)	25 µg/mL (≈ 71.5 µM)	12.5 µg/mL (≈ 35.7 µM)	25 µg/mL (≈ 71.5 µM)	34.3 µM	> 10 mg/mL	–
Cc1ncc([N+](=O)[O-])n1CC(C)OC(=O)/C=C/c1ccc(Br)cc1 (stereo unspecified)	6.25 µg/mL (≈ 15.9 µM)	6.25 µg/mL (≈ 15.9 µM)	3.13 µg/mL (≈ 7.94 µM)	3.13 µg/mL (≈ 7.94 µM)	15.6 µM	> 10 mg/mL	–
Cc1ccc(/C=C/C(=O)OC(C)Cn2c([N+](=O)[O-])cnc2C)cc1 (stereo unspecified)	100 µg/mL (≈ 304 µM)	50 µg/mL (≈ 152 µM)	> 100 µg/mL	> 100 µg/mL	–	–	–
COc1ccc(/C=C/C(=O)OC(C)Cn2c([N+](=O)[O-])cnc2C)cc1 (stereo unspecified)	> 100 µg/mL	> 100 µg/mL	50 µg/mL (≈ 145 µM)	50 µg/mL (≈ 145 µM)	–	–	–
Cc1ncc([N+](=O)[O-])n1CC(C)OC(=O)/C=C/c1ccc(-c2ccccc2)cc1 (stereo unspecified)	1.56 µg/mL (≈ 3.99 µM)	3.13 µg/mL (≈ 8 µM)	6.25 µg/mL (≈ 16 µM)	1.56 µg/mL (≈ 3.99 µM)	2.5 µM	> 10 mg/mL	–
Cc1ncc([N+](=O)[O-])n1CC(C)OC(=O)/C=C/c1ccc(OCc2ccccc2)cc1 (stereo unspecified)	3.13 µg/mL (≈ 7.43 µM)	6.25 µg/mL (≈ 14.8 µM)	6.25 µg/mL (≈ 14.8 µM)	3.13 µg/mL (≈ 7.43 µM)	6.7 µM	> 10 mg/mL	–
Cc1ncc([N+](=O)[O-])n1CC(C)OC(=O)/C=C/c1ccc(N(C)C)cc1 (stereo unspecified)	6.25 µg/mL (≈ 17.4 µM)	6.25 µg/mL (≈ 17.4 µM)	12.5 µg/mL (≈ 34.9 µM)	6.25 µg/mL (≈ 17.4 µM)	19.8 µM	> 10 mg/mL	–
Cc1ncc([N+](=O)[O-])n1CC(C)OC(=O)/C=C/c1ccc(Cl)cc1Cl (stereo unspecified)	3.13 µg/mL (≈ 8.15 µM)	6.25 µg/mL (≈ 16.3 µM)	6.25 µg/mL (≈ 16.3 µM)	12.5 µg/mL (≈ 32.5 µM)	9.4 µM	> 10 mg/mL	–
Cc1ncc([N+](=O)[O-])n1CC(C)OC(=O)/C=C/c1cccc2ccccc12 (stereo unspecified)	25 µg/mL (≈ 68.4 µM)	50 µg/mL (≈ 137 µM)	25 µg/mL (≈ 68.4 µM)	50 µg/mL (≈ 137 µM)	48.9 µM	> 10 mg/mL	–
Cc1ncc([N+](=O)[O-])n1CC(C)OC(=O)/C=C/c1ccc2ccccc2c1 (stereo unspecified)	50 µg/mL (≈ 137 µM)	50 µg/mL (≈ 137 µM)	50 µg/mL (≈ 137 µM)	100 µg/mL (≈ 274 µM)	–	–	–
Cc1ncc([N+](=O)[O-])n1CC(C)OC(=O)/C=C/c1cccs1 (stereo unspecified)	50 µg/mL (≈ 156 µM)	50 µg/mL (≈ 156 µM)	> 100 µg/mL	50 µg/mL (≈ 156 µM)	–	–	–
Cc1ncc([N+](=O)[O-])n1CC(C)OC(=O)/C=C/c1ccccc1 (stereo unspecified)	> 100 µg/mL	> 100 µg/mL	> 100 µg/mL	> 100 µg/mL	–	–	1.32 pM
Cc1ncc([N+](=O)[O-])n1CC(C)OC(=O)/C=C/c1ccccc1F (stereo unspecified)	> 100 µg/mL	> 100 µg/mL	> 100 µg/mL	> 100 µg/mL	–	–	–
Cc1ncc([N+](=O)[O-])n1CC(C)OC(=O)/C=C/c1ccccc1Cl (stereo unspecified)	50 µg/mL (≈ 143 µM)	25 µg/mL (≈ 71.5 µM)	50 µg/mL (≈ 143 µM)	50 µg/mL (≈ 143 µM)	–	–	–
Cc1ncc([N+](=O)[O-])n1CC(C)OC(=O)/C=C/c1ccccc1Br (stereo unspecified)	25 µg/mL (≈ 63.4 µM)	25 µg/mL (≈ 63.4 µM)	50 µg/mL (≈ 127 µM)	25 µg/mL (≈ 63.4 µM)	40.1 µM	> 10 mg/mL	–
COc1ccccc1/C=C/C(=O)OC(C)Cn1c([N+](=O)[O-])cnc1C (stereo unspecified)	> 100 µg/mL	> 100 µg/mL	> 100 µg/mL	> 100 µg/mL	–	–	1.79 pM
Cc1ncc([N+](=O)[O-])n1CC(C)OC(=O)/C=C/c1cccc(F)c1 (stereo unspecified)	3.13 µg/mL (≈ 9.39 µM)	3.13 µg/mL (≈ 9.39 µM)	6.25 µg/mL (≈ 18.8 µM)	6.25 µg/mL (≈ 18.8 µM)	8.2 µM	> 10 mg/mL	–
Cc1ncc([N+](=O)[O-])n1CC(C)OC(=O)/C=C/c1cccc(Br)c1 (stereo unspecified)	12.5 µg/mL (≈ 31.7 µM)	12.5 µg/mL (≈ 31.7 µM)	25 µg/mL (≈ 63.4 µM)	12.5 µg/mL (≈ 31.7 µM)	27.5 µM	> 10 mg/mL	–
COc1cccc(/C=C/C(=O)OC(C)Cn2c([N+](=O)[O-])cnc2C)c1 (stereo unspecified)	> 100 µg/mL	> 100 µg/mL	> 100 µg/mL	> 100 µg/mL	–	–	2.73 pM
Cc1ncc([N+](=O)[O-])n1CC(C)OC(=O)/C=C/c1ccc(F)cc1 (stereo unspecified)	50 µg/mL (≈ 150 µM)	50 µg/mL (≈ 150 µM)	50 µg/mL (≈ 150 µM)	100 µg/mL (≈ 300 µM)	–	–	–
O=C(O)/C=C/c1ccccc1 [CINNAMIC ACID]	–	–	–	–	43.4 µM	> 10 mg/mL	–
NC[C@H]1O[C@H](O[C@H]2[C@H](O)[C@@H](O[C@H]3O[C@H](CO)[C@@H](O)[C@H](N)[C@H]3O)[C@H](N)C[C@@H]2N)[C@H](O)[C@@H](O)[C@@H]1O [KANAMYCIN]	3.13 µg/mL (≈ 6.46 µM)	3.13 µg/mL (≈ 6.46 µM)	1.56 µg/mL (≈ 3.22 µM)	1.56 µg/mL (≈ 3.22 µM)	–	–	–
Cc1ncc([N+](=O)[O-])n1CC(C)O (stereo unspecified) [SECNIDAZOLE]	–	–	–	–	28.5 µM	> 10 mg/mL	–
